Earlier results, collected in paper PMC2074382 (British Journal of Cancer, 1996).
Structures can show the parent of a compound that is named as a salt.

Test system: bone marrow cultures
Details: ref Emerson et al., 1995; cited from earlier work

Compound: CC[C@@]1(O)C(=O)OCc2c1cc1n(c2=O)Cc2c-1nc1cc3c(cc1c2CN1CCN(C)CC1)OCCO3 [GI147211, [7 - (methylpiperazinomethylene) - 10,11 - ethylene-dioxy-20(S)] camptothecin dihydrochloride]
- myelotoxicity compared with topotecan: more myelotoxic than topotecan
